Test results published in ChEMBL document CHEMBL1129103, “Synthesis and antiviral activity of 2-deoxy-1,5-anhydro-D-mannitol nucleosides containing a pyrimidine base moiety” (1996).
Converted amounts (≈) assume the structure as drawn.

Columns and labels:
Type in all cases: functional
Human alphaherpesvirus 1 = test: Compound was tested for antiherpes activity against Herpes simplex virus-1(KOS) in E6SM cell cultures
Human alphaherpesvirus 3 = test: Compound was tested for antiherpes activity against Varicella zoster virus(OKA) in HEL cells
Human alphaherpesvirus 2 = test: Compound was tested for antiherpes activity against Herpes simplex virus-2(G) in E6SM cell cultures
Cytomegalovirus = test: Compound was tested for antiherpes activity against Cytomegalovirus virus(AD 169) in HEL cells; conditions: Human betaherpesvirus 5

Compound | MIC (Human alphaherpesvirus 1) [µg/mL] | MIC (Human alphaherpesvirus 3) [µg/mL] | MIC (Human alphaherpesvirus 2) [µg/mL] | MIC (Cytomegalovirus) [µg/mL]
O=c1ccn(C2COC(CO)C(O)C2O)c(=O)[nH]1 (stereo not drawn) | 150 (≈ 581 µM) | > 50 | > 200 | > 50
Nc1ccn(C2COC(CO)C(O)C2O)c(=O)n1 (stereo not drawn) | 70 (≈ 272 µM) | 10 (≈ 38.9 µM) | 70 (≈ 272 µM) | 10 (≈ 38.9 µM)
Nc1nc2c(ncn2COC(CO)CO)c(=O)[nH]1 [GANCICLOVIR] | 0.0007 (≈ 0.00274 µM) |  | 0.002 (≈ 0.00784 µM) | 1 (≈ 3.92 µM)
O=c1[nH]c(=O)n(C2COC(CO)C(O)C2O)cc1I (stereo not drawn) | 7 (≈ 18.2 µM) | > 50 | 70 (≈ 182 µM) | > 50
Nc1nc2c(ncn2COCCO)c(=O)[nH]1 [ACYCLOVIR] | 0.004 (≈ 0.0178 µM) | 0.5 (≈ 2.22 µM) | 0.004 (≈ 0.0178 µM) | 
